# Test results as given in patent US20250261636A1, “QUATERNARY AMMONIUM SANITIZING COMPOSITION” (ECOLAB USA INC., priority 2020, published 2025).
# “And” between values parts separate entries of the source, which are not always exact repeats. Equal values may be shown once.
# Columns and labels:
# [1] = tested on: Escherichia coli ATCC 11229; test: AOAC Method 960.09 Germicidal and Detergent Sanitizing Action of Disinfectants, food contact sanitizing suspension test; assay type: cell-based
# Method: (§1) The microbial efficacy of the multipurpose sanitizing composition was evaluated for food contact applications. The purpose of the testing is to determine the efficacy of compositions used for sanitizing food contact surfaces, which in the evaluations were pre-cleaned, non-porous surfaces using AOAC Method 960.09 Germicidal and Detergent Sanitizing Action of Disinfectants. […] The test organisms included Staphylococcus aureus ATCC 6538 and Escherichia coli ATCC 11229.
# (§2) The pH was adjusted by use of a polycarboxylic acid (unless otherwise noted, such as the polycarboxylate citrate tested at pH 8). In this screening test pH 9, 8, 7, 5, 4, and 3 were tested. “NT” indicates a condition was “Not Tested.”
# [2] = tested on: Staphylococcus aureus ATCC 6538; test: as above; assay type: cell-based; conditions: for Average Log Reduction / CFU - Dilution 1E−01 / CFU - Dilution 1E−02 / CFU/mL / Log / Log Reduction: 50 ppm; for Average Log Reduction / CFU - Dilution 1E−01 / CFU - Dilution 1E−02 / CFU/mL / Log: Example 4; for Log Reduction: Example 4, per replicate
# Method: as §1, §2
# [3] = 50 ppm, pH 4, 77° F., Example 4
# [4] = 50 ppm, pH 5, 77° F., Example 4
# [5] = 50 ppm, pH 6, 77° F., Example 4
# [6] = 50 ppm, pH 7, 77° F., Example 3
# [7] = 50 ppm, pH 7 as printed (second sample of Table 15), 77° F.
# [8] = 50 ppm, pH 7.5-8 (no pH adjustment), 77° F., Example 4
# [9] = pH 7.5-8 (no pH adjustment), 77° F.
compound,measurement,setting,value
"CCCCCCCC[N+](C)(C)CCCCCCCC.[Cl-] [Bardac LF, dioctyl dimethyl ammonium chloride]",Average Log Reduction,"[1]; 30 ppm, pH 5, 120° F.",3.06 log
same,CFU - Dilution 1E−01,"[1]; 30 ppm, pH 5, 120° F.",TNTC
same,CFU - Dilution 1E−02,"[1]; 30 ppm, pH 5, 120° F.",TNTC
same,CFU/mL,"[1]; 30 ppm, pH 5, 120° F.",3.0E+04 CFU/mL
same,Log,"[1]; 30 ppm, pH 5, 120° F.",4.48
same,Log Reduction,"[1]; 30 ppm, pH 5, 120° F., per replicate",3.06 log
same,Average Log Reduction,"[1]; 30 ppm, pH 7, 120° F.",3.06 log
same,log reduction E. coli (ATCC 11229),"[1]; 60 ppm, pH 5, 120° F.",3.06 log
same,log reduction E. coli (ATCC 11229),"[1]; 60 ppm, pH 7, 120° F.",3.06 log
same,log reduction E. coli (ATCC 11229),"[1]; 90 ppm, pH 5, 120° F.",3.06 log
same,log reduction E. coli (ATCC 11229),"[1]; 90 ppm, pH 7, 120° F.",3.06 log
didecyl dimethyl ammonium carbonate/bicarbonate [CarboQuat],log reduction E. coli (ATCC 11229),"[1]; 20 ppm, pH 5, 120° F.",5.08 log
same,log reduction E. coli (ATCC 11229),"[1]; 30 ppm, pH 3, 120° F.",6.25 log
same,log reduction E. coli (ATCC 11229),"[1]; 30 ppm, pH 4, 120° F.",6.88 log
same,Average Log Reduction,"[1]; 30 ppm, pH 5, 104° F.",5.61 log
same,CFU - Dilution 1E−01,"[1]; 30 ppm, pH 5, 104° F.",14 CFU and 28 CFU
same,CFU - Dilution 1E−02,"[1]; 30 ppm, pH 5, 104° F.",3 CFU and 6 CFU
same,Log Reduction,"[1]; 30 ppm, pH 5, 104° F., per replicate",5.76 log and 5.46 log
same,log reduction E. coli (ATCC 11229),"[1]; 30 ppm, pH 5, citric acid, 120° F.",6.67 log
same,log reduction E. coli (ATCC 11229),"[1]; 30 ppm, pH 5, formic acid, 120° F.",6.67 log
same,Average Log Reduction,"[1]; 30 ppm, pH 7, 104° F.",3.47 log
same,CFU - Dilution 1E−01,"[1]; 30 ppm, pH 7, 104° F.",TNTC
same,CFU - Dilution 1E−02,"[1]; 30 ppm, pH 7, 104° F.",TNTC
same,CFU/mL,"[1]; 30 ppm, pH 7, 104° F.",3.00E+04 CFU/mL
same,Log,"[1]; 30 ppm, pH 7, 104° F.",4.48
same,Log Reduction,"[1]; 30 ppm, pH 7, 104° F., per replicate",3.47 log
same,Average Log Reduction,"[1]; 30 ppm, pH 7, 120° F.",6.68 log
same,CFU - Dilution 1E−01,"[1]; 30 ppm, pH 7, 120° F.",0 CFU
same,CFU - Dilution 1E−02,"[1]; 30 ppm, pH 7, 120° F.",0 CFU
same,CFU/mL,"[1]; 30 ppm, pH 7, 120° F.",1E+01 CFU/mL
same,Log,"[1]; 30 ppm, pH 7, 120° F.",1.00
same,Log Reduction,"[1]; 30 ppm, pH 7, 120° F., per replicate",6.68 log
same,Average Log Reduction,"[1]; 30 ppm, pH 8, 120° F.",3.21 log
same,CFU - Dilution 1E−01,"[1]; 30 ppm, pH 8, 120° F.",TNTC
same,CFU - Dilution 1E−02,"[1]; 30 ppm, pH 8, 120° F.",TNTC
same,CFU/mL,"[1]; 30 ppm, pH 8, 120° F.",3.00E+04 CFU/mL
same,Log,"[1]; 30 ppm, pH 8, 120° F.",4.48
same,Log Reduction,"[1]; 30 ppm, pH 8, 120° F., per replicate",3.21 log
same,log reduction E. coli (ATCC 11229),"[1]; 30 ppm, pH 8, citrate, 120° F.",3.20 log
same,Average Log Reduction,"[1]; 40 ppm, pH 8, 120° F.",5.70 log
same,Log Reduction,"[1]; 40 ppm, pH 8, 120° F., per replicate",5.28 log and 6.12 log
same,Average Log Reduction,[1]; [3],5.22 log
same,CFU - Dilution 1E−01,[1]; [3],44 CFU
same,CFU - Dilution 1E−02,[1]; [3],7 CFU and 4 CFU
same,CFU/mL,[1]; [3],4.6E+02 CFU/mL and 4.4E+02 CFU/mL
same,Log,[1]; [3],2.67 and 2.64
same,Log Reduction,"[1]; 50 ppm, pH 4, 77° F., Example 4, per replicate",5.21 log and 5.23 log
same,log reduction E. coli (ATCC 11229),"[1]; 50 ppm, pH 5, 77° F., Example 3",6.70 log
same,Average Log Reduction,[1]; [4],6.87 log
same,CFU - Dilution 1E−01,[1]; [4],0 CFU
same,CFU - Dilution 1E−02,[1]; [4],0 CFU
same,CFU/mL,[1]; [4],1.0E+01 CFU/mL
same,Log,[1]; [4],1.00
same,Log Reduction,"[1]; 50 ppm, pH 5, 77° F., Example 4, per replicate",6.87 log
same,log reduction E. coli (ATCC 11229),"[1]; 50 ppm, pH 5, 104° F.",6.95 log
same,Average Log Reduction,[1]; [5],4.07 log
same,CFU - Dilution 1E−01,[1]; [5],TNTC
same,CFU - Dilution 1E−02,[1]; [5],84 CFU and 48 CFU
same,CFU/mL,[1]; [5],8.4E+03 CFU/mL and 4.8E+03 CFU/mL
same,Log,[1]; [5],3.92 and 3.68
same,Log Reduction,"[1]; 50 ppm, pH 6, 77° F., Example 4, per replicate",3.95 log and 4.19 log
same,Average Log Reduction,[1]; [6],3.35 log
same,CFU - Dilution 1E−01,[1]; [6],TNTC
same,CFU - Dilution 1E−02,[1]; [6],TNTC
same,CFU/mL,[1]; [6],3.00E+04 CFU/mL
same,Log,[1]; [6],4.48
same,Log Reduction,"[1]; 50 ppm, pH 7, 77° F., Example 3, per replicate",3.35 log
same,log reduction E. coli (ATCC 11229),"[1]; 50 ppm, pH 7, 104° F.",6.71 log
same,Average Log Reduction,[1]; [7],6.70 log
same,CFU - Dilution 1E−01,[1]; [7],2 CFU and 1 CFU
same,CFU - Dilution 1E−02,[1]; [7],0 CFU
same,CFU/mL,[1]; [7],2E+01 CFU/mL and 1E+01 CFU/mL
same,Log,[1]; [7],1.26 and 1.00
same,Log Reduction,"[1]; 50 ppm, pH 7 as printed (second sample of Table 15), 77° F., per replicate",6.57 log and 6.83 log
same,Average Log Reduction,[1]; [8],3.40 log
same,CFU - Dilution 1E−01,[1]; [8],TNTC
same,CFU - Dilution 1E−02,[1]; [8],TNTC
same,CFU/mL,[1]; [8],3.0E+04 CFU/mL
same,Log,[1]; [8],4.48
same,Log Reduction,"[1]; 50 ppm, pH 7.5-8 (no pH adjustment), 77° F., Example 4, per replicate",3.40 log
same,log reduction E. coli (ATCC 11229),"[1]; 50 ppm, pH 9, 77° F., Example 3",3.35 log
same,log reduction E. coli (ATCC 11229),"[1]; 50 ppm, pH 9, 104° F.",5.33 log
same,log reduction E. coli (ATCC 11229),"[1]; 75 ppm, pH 5, 77° F., Example 3",6.83 log
same,log reduction E. coli (ATCC 11229),"[1]; 75 ppm, pH 5, 104° F.",6.95 log
same,log reduction E. coli (ATCC 11229),"[1]; 75 ppm, pH 7, 77° F., Example 3",6.83 log
same,log reduction E. coli (ATCC 11229),"[1]; 75 ppm, pH 7, 104° F.",6.95 log
same,log reduction E. coli (ATCC 11229),"[1]; 75 ppm, pH 9, 77° F., Example 3",6.50 log
same,log reduction E. coli (ATCC 11229),"[1]; 75 ppm, pH 9, 104° F.",6.95 log
same,log reduction E. coli (ATCC 11229),"[1]; 100 ppm, pH 5, 77° F., Example 3",6.83 log
same,log reduction E. coli (ATCC 11229),"[1]; 100 ppm, pH 9, 77° F., Example 3",6.83 log
same,log reduction S. aureus (ATCC 6538),"[2]; 20 ppm, pH 5, 120° F.",6.88 log
same,log reduction S. aureus (ATCC 6538),"[2]; 30 ppm, pH 5, 120° F.",6.69 log and 6.88 log
same,log reduction S. aureus (ATCC 6538),"[2]; 30 ppm, pH 8, 120° F.",6.69 log
same,log reduction S. aureus (ATCC 6538),"[2]; 40 ppm, pH 8, 120° F.",6.69 log
same,Average Log Reduction,"[2]; pH 4, 77° F.",6.89 log
same,CFU - Dilution 1E−01,"[2]; pH 4, 77° F.",0 CFU
same,CFU - Dilution 1E−02,"[2]; pH 4, 77° F.",0 CFU
same,CFU/mL,"[2]; pH 4, 77° F.",1.0E+01 CFU/mL
same,Log,"[2]; pH 4, 77° F.",1.00
same,Log Reduction,"[2]; pH 4, 77° F.",6.89 log
same,Average Log Reduction,"[2]; pH 5, 77° F.",6.89 log
same,CFU - Dilution 1E−01,"[2]; pH 5, 77° F.",0 CFU
same,CFU - Dilution 1E−02,"[2]; pH 5, 77° F.",0 CFU
same,CFU/mL,"[2]; pH 5, 77° F.",1.0E+01 CFU/mL
same,Log,"[2]; pH 5, 77° F.",1.00
same,Log Reduction,"[2]; pH 5, 77° F.",6.89 log
same,Average Log Reduction,"[2]; pH 6, 77° F.",6.89 log
same,CFU - Dilution 1E−01,"[2]; pH 6, 77° F.",0 CFU
same,CFU/mL,"[2]; pH 6, 77° F.",1.0E+01 CFU/mL
same,Log,"[2]; pH 6, 77° F.",1.00
same,Log Reduction,"[2]; pH 6, 77° F.",6.89 log
same,Average Log Reduction,[2]; [9],6.89 log
same,CFU - Dilution 1E−01,[2]; [9],0 CFU
same,CFU - Dilution 1E−02,[2]; [9],0 CFU
same,CFU/mL,[2]; [9],1.0E+01 CFU/mL
same,Log,[2]; [9],1.00
same,Log Reduction,[2]; [9],6.89 log
